The text below walks through data of ChEMBL document CHEMBL1121801, “Salicylamide derivatives related to medroxalol with alpha- and beta-adrenergic antagonist and antihypertension activity” (J Med Chem, 1981).

Structures are written as SMILES.

In assay [1] the test system is Rattus norvegicus. Description: Antihypertensive activity in spontaneously hypertensive rats(SHR) at 50 mg/kg peroral dose after 1 h, expressed as decrease in systolic blood pressure. The settings on record: route oral. It is filed as functional, Artery.
Assay [2] has as its system Rattus norvegicus. The assay can be described thus: Antihypertensive activity in spontaneously hypertensive rats(SHR) at 50 mg/kg peroral dose after 4 h, expressed as decrease in systolic blood pressure. To be noted: route oral. Format: functional, Artery.
Assay [3] concerns the target T1, Adrenergic receptor alpha-1 (Homo sapiens, UniProt P35348+P25100+P35368).
T1 sequence (P35348 whole entry): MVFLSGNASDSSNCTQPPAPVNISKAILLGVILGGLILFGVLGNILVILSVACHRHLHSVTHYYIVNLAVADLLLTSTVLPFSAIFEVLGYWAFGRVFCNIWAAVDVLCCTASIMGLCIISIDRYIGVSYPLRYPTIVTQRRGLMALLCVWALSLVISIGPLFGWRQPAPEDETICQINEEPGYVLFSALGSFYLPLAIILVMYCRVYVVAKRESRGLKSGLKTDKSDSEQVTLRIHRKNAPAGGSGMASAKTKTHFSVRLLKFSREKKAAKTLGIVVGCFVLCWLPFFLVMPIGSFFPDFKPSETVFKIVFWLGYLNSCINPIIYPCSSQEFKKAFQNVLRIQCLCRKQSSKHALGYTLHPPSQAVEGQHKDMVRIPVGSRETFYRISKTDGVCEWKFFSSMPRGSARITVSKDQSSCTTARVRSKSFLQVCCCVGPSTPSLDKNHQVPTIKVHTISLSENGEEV
T1 sequence (P25100 whole entry): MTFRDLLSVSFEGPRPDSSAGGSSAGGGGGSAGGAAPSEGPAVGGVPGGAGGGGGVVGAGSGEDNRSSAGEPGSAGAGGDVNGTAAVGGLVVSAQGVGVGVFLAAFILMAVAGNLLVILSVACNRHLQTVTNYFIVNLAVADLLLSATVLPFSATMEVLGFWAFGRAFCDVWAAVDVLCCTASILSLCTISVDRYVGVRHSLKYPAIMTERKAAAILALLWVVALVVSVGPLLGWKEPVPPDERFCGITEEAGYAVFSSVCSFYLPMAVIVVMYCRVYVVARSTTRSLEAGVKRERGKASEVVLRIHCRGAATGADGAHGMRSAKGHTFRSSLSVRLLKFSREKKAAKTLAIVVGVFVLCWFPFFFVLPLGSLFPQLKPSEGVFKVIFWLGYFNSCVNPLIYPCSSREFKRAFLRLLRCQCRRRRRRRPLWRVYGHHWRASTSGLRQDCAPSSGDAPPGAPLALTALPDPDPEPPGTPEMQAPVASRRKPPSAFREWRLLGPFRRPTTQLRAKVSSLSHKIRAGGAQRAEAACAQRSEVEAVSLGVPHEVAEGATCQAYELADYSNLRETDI
T1 sequence (P35368 whole entry): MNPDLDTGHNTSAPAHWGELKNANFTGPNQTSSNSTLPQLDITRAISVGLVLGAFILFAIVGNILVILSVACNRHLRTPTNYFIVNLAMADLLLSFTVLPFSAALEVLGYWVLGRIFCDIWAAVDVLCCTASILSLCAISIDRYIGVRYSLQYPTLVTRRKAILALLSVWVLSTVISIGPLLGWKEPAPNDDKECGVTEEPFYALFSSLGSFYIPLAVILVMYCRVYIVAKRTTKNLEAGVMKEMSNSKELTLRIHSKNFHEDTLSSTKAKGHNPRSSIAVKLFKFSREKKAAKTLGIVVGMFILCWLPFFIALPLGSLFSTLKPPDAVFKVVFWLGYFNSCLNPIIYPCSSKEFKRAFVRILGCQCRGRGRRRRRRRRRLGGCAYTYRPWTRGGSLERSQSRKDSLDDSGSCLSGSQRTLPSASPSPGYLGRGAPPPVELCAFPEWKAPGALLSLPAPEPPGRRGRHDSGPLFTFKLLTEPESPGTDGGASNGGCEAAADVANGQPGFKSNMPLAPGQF
The assay can be described thus: In vitro blocking activity against alpha adrenergic receptor, isolated from rabbit aortic strip. It is filed as protein assay, Oryctolagus cuniculus.

Assay [4] addresses Adrenergic receptor beta (Homo sapiens, UniProt P08588+P07550+P13945). Description: In vitro blocking activity against beta adrenergic receptor, isolated from guinea pig atria. It is filed as protein assay.
The species named for assay [5] is Oryctolagus cuniculus. Description: Ratio of pA2 for beta-adrenergic receptor to that of alpha-adrenergic receptor.
Assay [6] is filed under the species Cavia porcellus. Description: spasmolytic activity in isolated guinea pig ileum preparation;- log KB; (Bacl2). The settings on record: read-out: pA2 (converted). Format: functional, organism-based.

As usually defined, the pA2 is a measure of antagonist potency on a negative log scale. Higher therefore signals a more potent antagonist. In the case of `CC(CCc1ccc2c(c1)OCO2)NCC(O)c1ccc(O)c(C(=O)N(C)C)c1.Cl` (stereo not drawn), the figures for the BP decrease in assay [1] and in assay [2] were 24 mmHg and 22 mmHg, respectively. Besides, the pA2 in assay [3] came to 5.46; in assay [4], 7.21. Further, in assay [5], the Ratio was 56. Moreover, in assay [6], the Kb is 8.71 µM.
On to `COC(=O)c1cc(C(O)CNCC2COc3ccccc3O2)ccc1O.Cl` (stereo not drawn), for which the BP decrease worked out at 46 mmHg in assay [1] and 31 mmHg in assay [2]. Besides, the pA2 in assay [3] came to 6.21; in assay [4], 5.92. Also, the Ratio in assay [5] amounted to 0.5. Besides, the Kb in assay [6] was 4.07 µM.
With `CNC(=O)c1cc(C(O)CN2CCN(c3ccc(OC)cc3)CC2)ccc1O.Cl` (stereo not drawn), the BP decrease is 20 mmHg in assay [1] and 14 mmHg in assay [2]. For the same compound, the values for the pA2 in assay [3] and in assay [4] were 5.47 and 5.17, respectively. In assay [5], the Ratio was 0.2. In addition, the Kb in assay [6] was 15.1 µM.
Regarding `COc1ccc(N2CCN(CC(O)c3ccc(O)c(C(N)=O)c3)CC2)cc1.Cl.Cl` (stereo not drawn), the values for the BP decrease in assay [1] and in assay [2] were 10 mmHg and 7 mmHg, respectively. Moreover, the pA2 in assay [3] was found to be 6.13; in assay [4], 5.84. Also, the Ratio in assay [5] was determined as 0.5. In assay [6], the Kb was > 52.5 µM.
As for `CCOc1ccc(C(O)CN2CCN(c3ccccc3)CC2)cc1C(N)=O.Cl` (stereo not drawn), the BP decrease turned out to be 22 mmHg in assay [1] and 19 mmHg in assay [2]. The figures for the pA2 in assay [3] and in assay [4] were 6.27 and 5.27, respectively. The Ratio in assay [5] is 0.1. Further, the Kb in assay [6] was 21.4 µM.
Turning to `Cl.NC(=O)c1cc(C(O)CN2CCN(Cc3ccccc3)CC2)ccc1O` (stereo not drawn), the values for the BP decrease in assay [1] and in assay [2] were 35 mmHg and 40 mmHg, respectively. Also, the pA2 in assay [3] stood at 5.13; in assay [4], 5.07. For the same compound, the Ratio in assay [5] is 0.9. Also, the Kb in assay [6] was > 74.1 µM.
In the case of `CC(C)NCC(O)COc1cccc2ccccc12.Cl` (stereo not drawn) [PROPRANOLOL HYDROCHLORIDE], the BP decrease was determined as 28 mmHg in assay [1] and 46 mmHg in assay [2].
As to `Cl.NC(=O)c1cc(C(O)CN2CCN(c3ccccc3)CC2)ccc1O` (stereo not drawn), the figures for the BP decrease in assay [1] and in assay [2] were 7 mmHg and 9 mmHg, respectively. The pA2 in assay [3] is reported as 7.04; in assay [4], 4.19.
With `COc1ccc(C(O)CN2CCN(c3ccccc3)CC2)cc1C(N)=O.Cl` (stereo not drawn), the values for the BP decrease in assay [1] and in assay [2] were 38 mmHg and 25 mmHg, respectively. Moreover, the pA2 in assay [3] was 6.54; in assay [4], < 5. Also, the Kb in assay [6] is 64.6 µM.
On to `CC(CCc1ccccc1)NC(C)C(O)c1ccc(O)cc1.Cl` (stereo not drawn) [NYLIDRIN HYDROCHLORIDE], for which the values for the BP decrease in assay [1] and in assay [2] were 54 mmHg and 51 mmHg, respectively.
`COC(=O)c1cc(C(O)CN2CCN(C(=O)c3ccco3)CC2)ccc1O.Cl` (stereo not drawn): the BP decrease worked out at 37 mmHg in assay [1] and 15 mmHg in assay [2]. Also, the pA2 in assay [3] and in assay [4] was < 5 in each case. Besides, the Kb in assay [6] was 17.4 µM.
Regarding `CNC(=O)c1cc(C(O)CN2CCN(c3ccccc3OC)CC2)ccc1O.Cl` (stereo not drawn), the BP decrease in assay [1] was 44 mmHg; in assay [2], 52 mmHg. The same compound displayed a pA2 in assay [3] of 7.95. Also, the Kb in assay [6] was 9.55 µM.
As for `NC(=O)c1cc(C(O)CN2CCN(C(=O)c3ccco3)CC2)ccc1O` (stereo not drawn), the results for the BP decrease in assay [1] and in assay [2] were 30 mmHg and 28 mmHg, respectively. Also, the pA2 in assay [3] and in assay [4] was < 5 throughout. In assay [6], the Kb is > 100 µM.
On to `COC(=O)c1cc(C(O)CNC(C)(C)CCc2ccc3c(c2)OCO3)ccc1O.Cl` (stereo not drawn), for which the figures for the BP decrease in assay [1] and in assay [2] were 41 mmHg and 39 mmHg, respectively. In addition, the results for the pA2 in assay [3] and in assay [4] were < 5 and 6.55, respectively. For the same compound, the Kb in assay [6] is 2.63 µM.
